# Laboratory results: PubChem BioAssay (NCI)
#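 Cultured in 96-well plates, cells were exposed to test compound for 48 hours across five concentrations. GI50: concentration for 50% inhibition of growth. TGI is the concentration that stops growth completely.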
# What was measured:
# Test in all cases: NCI-60 cell line screen, 48 h
# COLO 205 colon = test system: COLO 205 colon
# SK-MEL-5 melanoma = test system: SK-MEL-5 melanoma
# HS 578T breast = test system: HS 578T breast
# HCT-116 colon = test system: HCT-116 colon
# ACHN renal = test system: ACHN renal
# NCI-H23 lung = test system: NCI-H23 lung
# SK-MEL-2 melanoma = test system: SK-MEL-2 melanoma
# K-562 leukemia = test system: K-562 leukemia
# OVCAR-3 ovarian = test system: OVCAR-3 ovarian
# T-47D breast = test system: T-47D breast
# MCF7 breast = test system: MCF7 breast
# SF-295 CNS = test system: SF-295 CNS
# LOX IMVI melanoma = test system: LOX IMVI melanoma
# M14 melanoma = test system: M14 melanoma
# SF-268 CNS = test system: SF-268 CNS
# SK-MEL-28 melanoma = test system: SK-MEL-28 melanoma
# NCI-H226 lung = test system: NCI-H226 lung
# TK-10 renal = test system: TK-10 renal
# DU-145 prostate = test system: DU-145 prostate
# PC-3 prostate = test system: PC-3 prostate
# 786-0 renal = test system: 786-0 renal
# NCI-H522 lung = test system: NCI-H522 lung
# SNB-19 CNS = test system: SNB-19 CNS
# UACC-62 melanoma = test system: UACC-62 melanoma
# HOP-92 NSCLC = test system: HOP-92 NSCLC
# NCI-H460 lung = test system: NCI-H460 lung
# NCI/ADR-RES ovarian = test system: NCI/ADR-RES ovarian
# RXF 393 renal = test system: RXF 393 renal
# RPMI-8226 leukemia = test system: RPMI-8226 leukemia
# MOLT-4 leukemia = test system: MOLT-4 leukemia
# A498 renal = test system: A498 renal
# IGROV1 ovarian = test system: IGROV1 ovarian
# KM12 colon = test system: KM12 colon
# CCRF-CEM leukemia = test system: CCRF-CEM leukemia
# SK-OV-3 ovarian = test system: SK-OV-3 ovarian
# SN12C renal = test system: SN12C renal
# SR leukemia = test system: SR leukemia
# MDA-MB-435 = test system: MDA-MB-435
# CAKI-1 renal = test system: CAKI-1 renal
# OVCAR-5 ovarian = test system: OVCAR-5 ovarian
# A549 NSCLC = test system: A549 NSCLC
# HOP-62 NSCLC = test system: HOP-62 NSCLC
# OVCAR-8 ovarian = test system: OVCAR-8 ovarian
# HCT-15 colon = test system: HCT-15 colon
# U251 CNS = test system: U251 CNS
# UO-31 renal = test system: UO-31 renal
# OVCAR-4 ovarian = test system: OVCAR-4 ovarian
# HCC-2998 colon = test system: HCC-2998 colon
# MDA-MB-231 breast = test system: MDA-MB-231 breast
# HL-60(TB) leukemia = test system: HL-60(TB) leukemia
# HT29 colon = test system: HT29 colon
# SF-539 CNS = test system: SF-539 CNS
# MALME-3M melanoma = test system: MALME-3M melanoma
# UACC-257 melanoma = test system: UACC-257 melanoma
# SNB-75 CNS = test system: SNB-75 CNS
# SW-620 colon = test system: SW-620 colon
compound,measurement,setting,value
CC(C)(C)C(=O)OCCNc1nc(-c2ccccc2)nc2ccccc12,GI50,COLO 205 colon,16.2 µM
same,TGI,COLO 205 colon,37.9 µM
same,GI50,SK-MEL-5 melanoma,15.5 µM
same,TGI,SK-MEL-5 melanoma,28.8 µM
same,GI50,HS 578T breast,11.5 µM
same,TGI,HS 578T breast,25.6 µM
same,GI50,HCT-116 colon,11.5 µM
same,TGI,HCT-116 colon,23.7 µM
same,GI50,ACHN renal,13.6 µM
same,TGI,ACHN renal,26.5 µM
same,GI50,NCI-H23 lung,12.1 µM
same,TGI,NCI-H23 lung,24.5 µM
same,GI50,SK-MEL-2 melanoma,31.1 µM
same,TGI,SK-MEL-2 melanoma,> 100 µM
same,GI50,K-562 leukemia,2.11 µM
same,TGI,K-562 leukemia,10.9 µM
same,GI50,OVCAR-3 ovarian,3.68 µM
same,TGI,OVCAR-3 ovarian,19.3 µM
same,GI50,T-47D breast,22.5 µM
same,TGI,T-47D breast,93.3 µM
same,GI50,MCF7 breast,17.3 µM
same,TGI,MCF7 breast,43.2 µM
same,GI50,SF-295 CNS,10.7 µM
same,TGI,SF-295 CNS,22.5 µM
same,GI50,LOX IMVI melanoma,10.3 µM
same,TGI,LOX IMVI melanoma,22 µM
same,GI50,M14 melanoma,7.57 µM
same,TGI,M14 melanoma,20.5 µM
same,GI50,SF-268 CNS,16.8 µM
same,TGI,SF-268 CNS,35.7 µM
same,GI50,SK-MEL-28 melanoma,18.3 µM
same,TGI,SK-MEL-28 melanoma,40.1 µM
same,GI50,NCI-H226 lung,20.2 µM
same,TGI,NCI-H226 lung,67.1 µM
same,GI50,TK-10 renal,11 µM
same,TGI,TK-10 renal,23 µM
same,GI50,DU-145 prostate,13.3 µM
same,TGI,DU-145 prostate,26.1 µM
same,GI50,PC-3 prostate,15.6 µM
same,TGI,PC-3 prostate,32.6 µM
same,GI50,786-0 renal,3.4 µM
same,TGI,786-0 renal,19 µM
same,GI50,NCI-H522 lung,27.5 µM
same,TGI,NCI-H522 lung,> 100 µM
same,GI50,SNB-19 CNS,17.3 µM
same,TGI,SNB-19 CNS,34.9 µM
same,GI50,UACC-62 melanoma,14.5 µM
same,TGI,UACC-62 melanoma,27.5 µM
same,GI50,HOP-92 NSCLC,12.6 µM
same,TGI,HOP-92 NSCLC,29 µM
same,GI50,NCI-H460 lung,16.6 µM
same,TGI,NCI-H460 lung,34.7 µM
same,GI50,NCI/ADR-RES ovarian,16.6 µM
same,TGI,NCI/ADR-RES ovarian,51.6 µM
same,GI50,RXF 393 renal,15.4 µM
same,TGI,RXF 393 renal,32 µM
same,GI50,RPMI-8226 leukemia,3.7 µM
same,TGI,RPMI-8226 leukemia,25.7 µM
same,GI50,MOLT-4 leukemia,2.1 µM
same,TGI,MOLT-4 leukemia,19 µM
same,GI50,A498 renal,15.1 µM
same,TGI,A498 renal,29 µM
same,GI50,IGROV1 ovarian,29.5 µM
same,TGI,IGROV1 ovarian,> 100 µM
same,GI50,KM12 colon,3.94 µM
same,TGI,KM12 colon,17.4 µM
same,GI50,CCRF-CEM leukemia,12.7 µM
same,TGI,CCRF-CEM leukemia,35 µM
same,GI50,SK-OV-3 ovarian,17.7 µM
same,TGI,SK-OV-3 ovarian,38.9 µM
same,GI50,SN12C renal,15.1 µM
same,TGI,SN12C renal,28.4 µM
same,GI50,SR leukemia,5.44 µM
same,TGI,SR leukemia,61.5 µM
same,GI50,MDA-MB-435,15.7 µM
same,TGI,MDA-MB-435,29.1 µM
same,GI50,CAKI-1 renal,11.6 µM
same,TGI,CAKI-1 renal,23.8 µM
same,GI50,OVCAR-5 ovarian,14.6 µM
same,TGI,OVCAR-5 ovarian,27.8 µM
same,GI50,A549 NSCLC,16.8 µM
same,TGI,A549 NSCLC,39.5 µM
same,GI50,HOP-62 NSCLC,13 µM
same,TGI,HOP-62 NSCLC,25.6 µM
same,GI50,OVCAR-8 ovarian,13.5 µM
same,TGI,OVCAR-8 ovarian,42.8 µM
same,GI50,HCT-15 colon,12.3 µM
same,TGI,HCT-15 colon,24.8 µM
same,GI50,U251 CNS,11.5 µM
same,TGI,U251 CNS,23.6 µM
same,GI50,UO-31 renal,13.2 µM
same,TGI,UO-31 renal,36.1 µM
same,GI50,OVCAR-4 ovarian,23.3 µM
same,TGI,OVCAR-4 ovarian,73.1 µM
same,GI50,HCC-2998 colon,16.4 µM
same,TGI,HCC-2998 colon,29.9 µM
Clc1ccccc1CN1COc2c(cc(Cl)c3cccnc23)C1,TGI,COLO 205 colon,43.2 µM
same,TGI,MDA-MB-231 breast,9.33 µM
same,TGI,SK-MEL-5 melanoma,5.78 µM
same,TGI,HS 578T breast,23.4 µM
same,TGI,HCT-116 colon,15.4 µM
same,TGI,ACHN renal,13.4 µM
same,TGI,NCI-H23 lung,13.2 µM
same,TGI,SK-MEL-2 melanoma,26.1 µM
same,TGI,K-562 leukemia,11.9 µM
same,TGI,HL-60(TB) leukemia,8.9 µM
same,TGI,OVCAR-3 ovarian,26.4 µM
same,TGI,T-47D breast,> 100 µM
same,TGI,MCF7 breast,86.5 µM
same,TGI,SF-295 CNS,16.6 µM
same,TGI,M14 melanoma,21.7 µM
same,TGI,SF-268 CNS,46.5 µM
same,TGI,SK-MEL-28 melanoma,25.9 µM
same,TGI,NCI-H226 lung,4.09 µM
same,TGI,TK-10 renal,26.5 µM
same,TGI,DU-145 prostate,21 µM
same,TGI,PC-3 prostate,18.7 µM
same,TGI,786-0 renal,18.9 µM
same,TGI,NCI-H522 lung,15.7 µM
same,TGI,SNB-19 CNS,17.2 µM
same,TGI,UACC-62 melanoma,3.8 µM
same,TGI,HOP-92 NSCLC,23 µM
same,TGI,NCI-H460 lung,27.4 µM
same,TGI,HT29 colon,36.6 µM
same,TGI,NCI/ADR-RES ovarian,1.74 µM
same,TGI,RXF 393 renal,39.6 µM
same,TGI,SF-539 CNS,10.9 µM
same,TGI,MOLT-4 leukemia,1.12 µM
same,TGI,IGROV1 ovarian,23.7 µM
same,TGI,KM12 colon,14.6 µM
same,TGI,SK-OV-3 ovarian,21.2 µM
same,TGI,MALME-3M melanoma,11.1 µM
same,TGI,SN12C renal,0.494 µM
same,TGI,SR leukemia,4 µM
same,TGI,MDA-MB-435,20.9 µM
same,TGI,CAKI-1 renal,24 µM
same,TGI,UACC-257 melanoma,12.3 µM
same,TGI,SNB-75 CNS,18.8 µM
same,TGI,OVCAR-5 ovarian,15.1 µM
same,TGI,A549 NSCLC,13.6 µM
same,TGI,HOP-62 NSCLC,18.7 µM
same,TGI,SW-620 colon,21 µM
same,TGI,OVCAR-8 ovarian,13.9 µM
same,TGI,HCT-15 colon,10.9 µM
same,TGI,U251 CNS,14.1 µM
same,TGI,UO-31 renal,21.7 µM
same,TGI,OVCAR-4 ovarian,14.2 µM
